The source of these data is patent publication US10328075B2, “Method of treatment and compounds for use therein” (Baker Heart and Diabetes Institute, priority 2015, dated 2019).

The target in one assay is T1, hFPR1 (Homo sapiens, UniProt P21462).
T1 construct: expressed in transfected cells
T1 sequence (P21462 1-350): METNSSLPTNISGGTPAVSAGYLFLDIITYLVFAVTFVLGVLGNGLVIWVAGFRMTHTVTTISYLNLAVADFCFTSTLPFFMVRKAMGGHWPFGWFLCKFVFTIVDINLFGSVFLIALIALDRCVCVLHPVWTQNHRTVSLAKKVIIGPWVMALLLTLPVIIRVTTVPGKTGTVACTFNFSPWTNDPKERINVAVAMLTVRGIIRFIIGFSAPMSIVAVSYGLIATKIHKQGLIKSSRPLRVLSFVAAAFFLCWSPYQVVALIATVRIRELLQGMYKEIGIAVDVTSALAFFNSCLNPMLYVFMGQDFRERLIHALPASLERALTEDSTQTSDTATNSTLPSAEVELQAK
Put plainly: [Ca2+]i mobilization in FlpIn-CHO cells stably expressing hFPR1. Type of assay: cell-based. The arrangement: Calcium Rmax: unit not given here. As to conditions: for Emax: Flp-In-CHO. From the text: (§1) cDNDA construct and generation of stable cell lines: cDNA in pcDNA3.1^+ encoding the human formyl peptide receptors (FPR) subtypes, hFPR1, hFPR2 and hFPR3 was obtained from Invitrogen. The sequences for 3 hFPR receptors were amplified by PCR and cloned into the Gateway entry vector, pDONR202™, using the BP clonase enzyme mix, according to the manufactures' instructions (Invitrogen Inc, Carlsbad, Calif., USA). All hFPR receptors constructs in pDONR201™ were subsequently transfected into the pEF5/FRT/V5/dest vector using the LR clonase enzyme mix (Invitrogen). Receptor constructs (pEF5/FRT/V5/dest) were used to transfect FIp-In CHO cells as described previously (Valant C et al., PNAS, 2014). Cells were selected using 500 μg/mL hydromycin to generate cell lines stably expressing each receptor construct. Cells were maintained and cultured in high glucose DMEM supplemented with 10% FBS, 16 mM HEPES and 500 μg/mL hydromycin at 37° C. under a humidified atmosphere containing 5% CO2.
(§2) In the various assays described below, cells were plated into 96-well transparent cell culture plates at 4×10^4 cells per well, cultured overnight in serum-free media at 37° C. in 5% CO2.
(§3) Intracellular calcium mobilization: Intracellular calcium mobilization was assayed as described previously (Keov, P et al., 2014). Briefly, cells were washed once using HEPES buffered saline (HBS) solution [150 mM NaCl, 2.2 mM CaCl2, 2.6 mM KCl, 1.2 mM MgCl2, 10 mM HEPEs, 10 mM D-Glucose, 0.5% (w/v) bovine serum albumin (BSA) and 4 mM probenecid] at pH 7.4, then treated with Fluo-4-AM (1 μM, in HBS/BSA/probenecid) for 60 min at 37° C. in 5% CO2 in the dark. Cells were then further washed and placed in HBS/BSA/probenecid solution for ligation addition and assay using the FLEXstation 3 plate reader (Molecular Devices, Sunnyvale, Calif.). For all experiments, peak change in fluorescence signal was normalized to the cellular response to 100 μM ATP, which was used as an internal positive control.
(§4) Data analysis: All data were analysed using GraphPad Prism 6.0 (GraphPad Software, San Deigo, Calif., USA). Where appropriate, concentration-response curves were fitted to derive the maximal agonist effect (Emax), and the ligand potency estimate (pEC50), where Emax is the maximal possible response of the system (not the agonist), basal is the basal level of response in the absence of agonist, and pEC50 is the negative logarithm of the agonist concentration that gives a response halfway between Emax and basal.
(§5) In the present study, FIp-IN CHO cells and Gateway plasmid were obtained from Invitrogen Inc (Carlsbad, Calif., USA). The sequences for all 3 known human FPRs (hFPR1, hFPR2 and hFPR3) were amplified by PCR and cloned into the Gateway entry vector, pDONR202TM, using the BP clonase enzyme mix, according to the manufacturers' instructions. The hFPR pDONR201TM constructs were subsequently transfected into the pEF5/FRT/V5/dest vector using the LR clonase enzyme mix (Invitrogen). Receptor constructs (pEF5/FRT/V5/dest) were used to transfect FIp-IN CHO cells, as described previously (Valant et al. 2014). Cells were selected using 500 μg/mL hydromycin to generate cell lines stably expressing each human receptor construct. Cells were maintained and cultured in high glucose Dulbecco's modified eagle medium (DMEM) supplemented with 10% fetal bovine serum (FBS, from JRH Biosciences, Lenexa, Kans., USA) and 500 μg/mL hydromycin B (Invitrogen Inc) at 37° C. under a humidified atmosphere containing 5% CO2. Cell were plated into 96-well transparent cell culture plates at 4×10^4 cells per well, cultured overnight in serum-free media at 37° C. in 5% CO2.
(§6) (ii) Intracellular Ca2+ mobilization: Intracellular Ca2+ mobilization was determined in stably-transfected recombinant hFPR CHO cells, as described previously (Valant et al. 2014).

For the next assay, the target named is T2, hFPR2 (Homo sapiens, UniProt P25090).
T2 construct: expressed in transfected cells
T2 sequence (P25090 1-351): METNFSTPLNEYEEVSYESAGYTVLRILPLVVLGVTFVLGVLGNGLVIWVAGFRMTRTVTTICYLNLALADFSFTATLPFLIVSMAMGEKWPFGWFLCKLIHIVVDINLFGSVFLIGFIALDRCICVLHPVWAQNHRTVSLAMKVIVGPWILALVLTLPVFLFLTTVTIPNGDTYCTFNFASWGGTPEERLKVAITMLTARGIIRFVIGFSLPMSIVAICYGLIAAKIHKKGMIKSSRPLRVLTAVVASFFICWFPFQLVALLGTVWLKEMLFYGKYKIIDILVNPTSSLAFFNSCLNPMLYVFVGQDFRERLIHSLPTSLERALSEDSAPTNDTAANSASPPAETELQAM
Put plainly: [Ca2+]i mobilization in FlpIn-CHO cells stably expressing hFPR2. It counts as cell-based. As to conditions: for Emax: Flp-In-CHO; for EC50: read-out: pEC50, [Ca^2+]i mobilization, hFPR2-Flpln-CHO (converted); for ΔLog(τ/KA), [Ca^2+]i mobilization, hFPR2-Flpln-CHO: normalized transduction coefficient, reference agonist Cmpd43; for Log(τ/KA), [Ca^2+]i mobilization, hFPR2-Flpln-CHO: transduction coefficient.
Description: as §1, §2, §3, §4, §5, §6

The mark [1] stands for this setting: Table 9, read-out: potency (pEC50) Ca^2+i, hFPR1-FlpInCHO cells in vitro (converted).
Setting [2] is: Table 1, percentage of [Ca^2+]i mobilization elicited by ATP, read-out: Emax (%), [Ca^2+]i mobilization, hFPR2-Flpln-CHO.
Where [3] appears, read: Table 8, percent of response elicited by ATP, read-out: Emax, [Ca^2+]i mobilization, hFPR2-Flpln-CHO.

Like-named read-outs stand apart in the source and are kept apart here.

In general, Emax refers to the maximal effect, on the per cent scale that the assay sets. As to `CC(C)C1C(NC(=O)Nc2ccc(Cl)cc2)C(=O)N(c2ccccc2)N1C` (stereo not drawn) [BIDI-002], the Emax at hFPR1 (Table 1, percentage of [Ca^2+]i mobilization elicited by ATP, read-out: Emax (%), [Ca^2+]i mobilization, hFPR1-Flpln-CHO) came to 43 ± 6%; on hFPR1 (Table 8, percent of response elicited by ATP, read-out: Emax, [Ca^2+]i mobilization, hFPR1-Flpln-CHO), 43 ± 6%; at hFPR2 (setting [2]), 51 ± 3%; on hFPR2 (setting [3]), 51 ± 3%. Moreover, the EC50 on hFPR1 (Table 1, read-out: pEC50, [Ca^2+]i mobilization, hFPR1-Flpln-CHO (converted)) was 11 nM; on hFPR1 (Table 8, read-out: pEC50, [Ca^2+]i mobilization, hFPR1-Flpln-CHO (converted)), 10 nM; on hFPR1 (setting [1]), 11 nM; on hFPR2 (Table 1), 20.9 nM; at hFPR2 (Table 8), 20 nM. Further, the “ΔLog(τ/KA), [Ca^2+]i mobilization, hFPR1-Flpln-CHO” value at hFPR1 (Table 8, normalized transduction coefficient, reference agonist Cmpd43) was 0.0. Moreover, the “Log(τ/KA), [Ca^2+]i mobilization, hFPR1-Flpln-CHO” value on hFPR1 (Table 8, transduction coefficient) was 8.0 ± 0.2. In addition, on hFPR2 (Table 8), the “ΔLog(τ/KA), [Ca^2+]i mobilization, hFPR2-Flpln-CHO” value stood at 0.0. Moreover, at hFPR2 (Table 8), the “Log(τ/KA), [Ca^2+]i mobilization, hFPR2-Flpln-CHO” value stood at 7.7 ± 0.3.

As for `Cc1cc(Cc2cccnc2)c(=O)n(CC(=O)Nc2ccc(Cl)cc2)n1` [MIPS-0010396], the EC50 at hFPR1 (setting [1]) is 33100 nM; at hFPR1 (Table 10, receptor not given, ND = Not detectable, read-out: Calcium pEC50 (converted)) it was 33100 nM. The “Calcium Rmax” value at hFPR1 (Table 10, receptor not given, ND = Not detectable) is given as 22 ± 2.

Take `CSCC[C@H](NC=O)C(=O)N[C@@H](CC(C)C)C(=O)N[C@@H](Cc1ccccc1)C(=O)O` [fMLP, N-formyl-Met-Leu-Phe]: the maximal response (Emax) at hFPR2 (setting [2]) stood at 38 ± 4%. Also, the maximum response (Emax) at hFPR2 (setting [3]) worked out at 38 ± 4%. In addition, on hFPR2 (Table 8), the “ΔLog(τ/KA), [Ca^2+]i mobilization, hFPR2-Flpln-CHO” value is recorded as −2.2 ± 0.3 and the “Log(τ/KA), [Ca^2+]i mobilization, hFPR2-Flpln-CHO” value was 5.4 ± 0.1. Also, on hFPR2 (in words), the “Potency range of Ca^2+ mobilization in hFPR2-CHO cells” value is given as “micromolar range”.
